We go through six compounds from article PMC10333884, “Large‐scale phosphomimetic screening identifies phospho‐modulated motif‐based protein interactions” (Molecular Systems Biology, 2023).

Each structure is given as a SMILES string. Residues, ends and D or L forms follow the SMILES beside them.

The target of assay [1] is T1, GABARAPL2 (Homo sapiens, UniProt P60520).
T1 construct: GABARAPL2_ATG8__P60520_2_115; GST (cleaved yes); made in house; host or cells: Escherichia coli BL21-Gold(DE3)
Nature of the assay: FP displacement assay, GABARAPL2. The assay is classed as binding. Particulars: read-out: KD values ± SEM. Put shortly:
(§1)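 Fluorescence polarization at room temperature in 50 mM sodium phosphate pH 7.4 with 5 nM FITC-labelled peptide; direct saturation curves with protein domain dilutions fitted to a quadratic equation. Displacement used unlabelled peptide dilutions against pre-formed complex, KD calculated per Nikolovska-Coleska; amplitudes normalised to back-calculated active protein concentration.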

Assay [2] has as its target T2, MAP1LC3A (Homo sapiens, UniProt Q9H492).
T2 construct: GST (cleaved yes); made in house; host or cells: Escherichia coli BL21-Gold(DE3)
Briefly: FP displacement assay, MAP1LC3A. The assay is classed as binding.

Assay [3] deals with T3, MAP1LC3B (Homo sapiens, UniProt Q9GZQ8).
T3 construct: GST (cleaved yes); made in house; host or cells: Escherichia coli BL21-Gold(DE3)
Nature of the assay: FP displacement assay, MAP1LC3B. The assay is classed as binding. Particulars: read-out: KD values ± SEM. Put shortly: as §1

Assay [4] concerns the target T1, GABARAPL2. Nature of the assay: Phosphomimetic ProP-PD selection, GABARAPL2. Particulars: phosphomimetic enrichment score of the wild-type/phosphomimetic (E) pair at the phosphosite, PM_HD2 phage selection; positive = phosphomimetic enhances binding; P-value in brackets not taken. How it is done:
(§2) Selections using the PM_HD2 phage library were performed as described previously with minor modification to the original protocol. The corresponding tag protein (either GST or MBP) was first used during negative selections. Selections were run for 4 days. • Bait and tag proteins (10–15 μg in 100 μl PBS) were immobilised in 96‐well MaxiSorb plate (NUNC) o.n. at 4°C. • Escherichia coli OmniMax bacteria were grown in 2YT medium supplemented with tetracycline (100 μg/ml) at 37°C and 200 rpm. • Plates with immobilised bait/tag proteins were blocked with 0.5% BSA in PBS for 1 h at 4°C. • Phage library (10 μl/well) was prepared by diluting 10× with PBS and adding one‐fourth of the volume of PEG/NaCl. For phage precipitation, prepared library was incubated for 10 min on ice followed by centrifugation for 10 min at 10,000 × g at 4°C. […]
(§3) Based on the results from phage pool ELISAs, samples from selection Day 3 and 4 were selected for NGS, as described previously (Benz et al, [2022]). • Peptide coding regions were amplified and dual‐barcoded by PCR. […] From the columns, samples were eluted with 30 μl TE (10 mM Tris–HCl, 1 mM EDTA. pH 7.5) buffer and quantified with Quant‐iT PicoGreen dsDNA Assay Kit. • Samples were sequenced on MiSeq (MSC 2.5.0.5/RTA 1.18.54) with a 151 nt (Read1) setup using “Version3” chemistry. […]

The target in assay [5] is T2, MAP1LC3A. Briefly: Phosphomimetic ProP-PD selection, MAP1LC3A. Conditions: phosphomimetic enrichment score of the wild-type/phosphomimetic (E) pair at the phosphosite, PM_HD2 phage selection; positive = phosphomimetic enhances binding; P-value in brackets not taken. How it is done: as §2, §3
Assay [6] addresses T3, MAP1LC3B. Nature of the assay: Phosphomimetic ProP-PD selection, MAP1LC3B. Particulars: phosphomimetic enrichment score of the wild-type/phosphomimetic (E) pair at the phosphosite, PM_HD2 phage selection; positive = phosphomimetic enhances binding; P-value in brackets not taken. The protocol: as §2, §3
Assay [7] addresses T4, RANBP2 RanBD4 (Homo sapiens, UniProt P49792).
T4 construct: GST (cleaved yes); made in house; host or cells: Escherichia coli BL21-Gold(DE3)
T4 sequence (P49792 2924-3050): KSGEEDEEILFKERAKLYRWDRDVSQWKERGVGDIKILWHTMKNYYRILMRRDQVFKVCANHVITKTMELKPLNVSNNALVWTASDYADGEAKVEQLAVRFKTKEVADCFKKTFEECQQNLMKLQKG
Nature of the assay: FP displacement assay, RANBP2 RanBD4. The assay is classed as binding. Particulars: probe FITC-C7orf25 5 nM, 50 mM sodium phosphate pH 7.4, room temperature, at least three technical replicates, read-out: KD values ± SEM. How it is done: (§4) FP experiments were performed as described previously (Kliche et al, [2021]). Shortly, in order to monitor the binding event, FITC‐labelled peptides were used (excitation 495 nm, emission: 535 nm) and the FP signal was recorded in mP on a SpectraMax iD5 Multi‐Mode Microplate Reader (Molecular Devices) by measuring the emitted light in two angels. The measurements were performed at room temperature and prepared in nonbinding black half area 96‐well microplates (Corning®; 50 μl/well). For measuring direct binding, that is saturation curves, a 1:1 dilution series of protein domain (25 μl/well) was generated in 50 mM sodium phosphate buffer pH 7.4 and the measurement performed with 5 nM FITC‐labelled peptide (25 μl/well). The buffer‐corrected values were subsequently plotted with PRISM and fitted to the quadratic equation (Gianni et al, [2005]).
(§5) The 1:1 dilution series in this experiment was performed with the unlabelled peptide in 50 mM sodium phosphate buffer pH 7.4, so that each well‐contained unlabelled peptide (25 μl) at a certain concentration and pre‐formed complex (25 μl). The KD values of this indirectly monitored binding event were calculated as described previously (Nikolovska‐Coleska et al, [2004]). All measurements were at least in technical triplicates as well as biological duplicates when indicated. An amplitude shift between repeat measurements in the displacement experiments was occasionally observed due to variations in the protein preparations. If that was the case, the “active” protein concentration was back‐calculated according to the quadratic equation from the saturation curves performed in parallel. By comparing the active protein concentrations in the complex between different protein preparations, the amplitude was normalised.

In assay [8] the target is T4, RANBP2 RanBD4. Nature of the assay: Phosphomimetic ProP-PD selection, RANBP2 RanBD4. Conditions: phosphomimetic enrichment score of the wild-type/phosphomimetic (E) pair at the phosphosite, PM_HD2 phage selection; positive = phosphomimetic enhances binding; P-value in brackets not taken. The protocol: as §2, §3
For assay [9], the target named is T5, PDCD6IP Alix V domain (Homo sapiens, UniProt Q8WUM4).
T5 construct: GST (cleaved yes); made in house; host or cells: Escherichia coli BL21-Gold(DE3)
T5 sequence (Q8WUM4 360-702): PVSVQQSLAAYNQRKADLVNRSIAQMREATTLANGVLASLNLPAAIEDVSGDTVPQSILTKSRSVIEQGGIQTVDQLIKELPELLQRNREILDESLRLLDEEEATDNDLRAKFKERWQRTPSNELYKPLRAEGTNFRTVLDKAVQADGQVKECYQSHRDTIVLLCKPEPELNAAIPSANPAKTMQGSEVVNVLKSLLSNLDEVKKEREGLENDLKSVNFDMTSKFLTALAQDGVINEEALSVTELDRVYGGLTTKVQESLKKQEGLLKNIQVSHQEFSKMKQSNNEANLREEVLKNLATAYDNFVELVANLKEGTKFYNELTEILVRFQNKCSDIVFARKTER
Nature of the assay: FP displacement assay, PDCD6IP Alix V domain. Conditions: probe FITC-HIV1_Gag 5 nM, 50 mM sodium phosphate pH 7.4, room temperature, at least three technical replicates, read-out: KD values ± SEM. The assay is classed as binding. The protocol: as §4, §5

Assay [10] has as its target T5, PDCD6IP Alix V domain. Nature of the assay: Phosphomimetic ProP-PD selection, PDCD6IP Alix V domain. Particulars: phosphomimetic enrichment score of the wild-type/phosphomimetic (E) pair at the phosphosite, PM_HD2 phage selection; positive = phosphomimetic enhances binding; P-value in brackets not taken. The protocol:
as §2, §3

T1 sequence (P60520 2-115): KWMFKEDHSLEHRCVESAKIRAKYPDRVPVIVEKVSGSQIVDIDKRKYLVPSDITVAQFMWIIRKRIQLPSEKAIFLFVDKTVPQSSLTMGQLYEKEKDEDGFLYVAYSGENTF

Usually Kd stands for the concentration at which binding is half-saturated. Broadly, the IC50 is the concentration that gives 50% inhibition. In the case of `CC(=O)N[C@@H](Cc1ccc(O)cc1)C(=O)N[C@@H](CCCCN)C(=O)N[C@@H](CCCCN)C(=O)N[C@@H](CCC(N)=O)C(=O)N[C@@H](CC(C)C)C(=O)N[C@@H](CCCCN)C(=O)N[C@@H](CCCNC(=N)N)C(=O)N[C@@H](Cc1ccccc1)C(=O)N[C@@H](CCC(=O)O)C(=O)N[C@H](C(=O)N[C@@H](CCC(=O)O)C(=O)N[C@@H](CCC(=O)O)C(=O)N[C@@H](Cc1ccccc1)C(=O)N[C@H](C(=O)N[C@@H](CC(C)C)C(=O)N[C@@H](CC(C)C)C(=O)O)C(C)C)[C@@H](C)O` [ATG4C444–458 E] (Ac-YKKQLKRFETEEFVLL-OH), the Kd in assay [1] stood at 1.8 ± 0.2 µM; in assay [2] (read-out: KD values ± SEM), 3.1 ± 0.2 µM; in assay [3], 4.6 ± 0.5 µM. For the same compound, in [2] (Fig 4B, MAP1LC3A ATG8, FP displacement, technical triplicates, read-out: IC50 values of displacement curves, with SEM), the IC50 was 11 ± 1 µM. Also, the PES in [4] is 4.3 (0.0025); in [5], 2.3 (0.015); in assay [6] it was 6 (0.00063).

`CC(=O)N[C@@H](CCCCN)C(=O)N[C@@H](Cc1ccc(O)cc1)C(=O)N[C@@H](CO)C(=O)N[C@@H](CC(=O)O)C(=O)N[C@@H](CC(=O)O)C(=O)N[C@H](C(=O)N1CCC[C@H]1C(=O)N[C@@H](CC(C)C)C(=O)N1CCC[C@H]1C(=O)N[C@@H](CCC(=O)O)C(=O)N1CCC[C@H]1C(=O)N[C@@H](CO)C(=O)N[C@@H](Cc1ccc(O)cc1)C(=O)N[C@@H](CCCCN)C(=O)N[C@@H](Cc1ccc(O)cc1)C(=O)N[C@@H](CC(N)=O)C(N)=O)[C@@H](C)O` [DHX38_260–275 E] (Ac-KYSDDTPLPEPSYKYN-NH2): the Kd in assay [7] was 470 ± 35 µM. In addition, the PES in assay [8] is on record as 3 (0.04).

On to `CC[C@H](C)[C@H](NC(=O)[C@H](CCCCN)NC(=O)[C@H](CC(C)C)NC(=O)[C@@H]1CCCN1C(=O)[C@H](CCC(=O)O)NC(=O)[C@@H](NC(=O)[C@H](CCC(N)=O)NC(=O)[C@@H]1CCCN1C(=O)[C@H](Cc1ccc(O)cc1)NC(=O)[C@H](CC(C)C)NC(=O)[C@@H]1CCCN1C(=O)[C@H](CCCNC(=N)N)NC(=O)[C@H](CC(C)C)NC(=O)[C@@H]1CCCN1C(=O)[C@H](CO)NC(=O)[C@H](C)NC(C)=O)[C@@H](C)CC)C(N)=O` [FOXK1_212–227 E] (Ac-ASPLRPLYPQIEPLKI-NH2), for which the Kd in assay [9] amounted to 13 ± 1 µM. For the same compound, the PES in assay [10] is on record as 2.9 (0.04).

Consider `CC(=O)N[C@@H](Cc1c[nH]cn1)C(=O)N[C@@H](CC(C)C)C(=O)N1CCC[C@H]1C(=O)N[C@@H](CC(C)C)C(=O)N[C@@H](CC(N)=O)C(=O)N[C@@H](CCC(=O)O)C(=O)N1CCC[C@H]1C(=O)N[C@@H](CC(C)C)C(=O)N1CCC[C@H]1C(=O)NCC(=O)N[C@@H](CO)C(=O)N[C@@H](CCC(=O)O)C(=O)N[C@@H](CC(C)C)C(=O)N[C@H](C(=O)N[C@@H](CCCCN)C(=O)N[C@@H](Cc1ccc(O)cc1)C(N)=O)[C@@H](C)O` [INTS6_145–159 E] (Ac-HLPLNEPLPGSELTKY-NH2), for which, in [7], the dissociation constant (Kd) came to 1080 µM. For the same compound, the PES in assay [8] is on record as −4 (0.0044).

In the case of `CC(=O)N[C@H](C(=O)N[C@@H](CCC(=O)O)C(=O)N1CCC[C@H]1C(=O)N[C@@H](CC(C)C)C(=O)N[C@H](C(=O)N[C@@H](CO)C(=O)N[C@@H](CC(C)C)C(=O)N[C@@H](Cc1ccc(O)cc1)C(=O)N1CCC[C@H]1C(=O)N[C@@H](C)C(=O)N[C@@H](CC(C)C)C(=O)N[C@@H](CCC(=O)O)C(=O)N[C@@H](C)C(=O)N[C@@H](CCCNC(=N)N)C(=O)N[C@@H](C)C(=O)N[C@@H](CC(C)C)C(N)=O)C(C)C)[C@@H](C)O` [OTUD5_507–522 E] (Ac-TEPLVSLYPALEARAL-NH2), the Kd in assay [9] came out at 88 ± 7 µM. In addition, the PES in [10] is recorded as 0.66 (0.34).

On to `CC(=O)N[C@@H](CC(C)C)C(=O)N[C@@H](CCC(=O)O)C(=O)N[C@@H](CC(=O)O)C(=O)N[C@@H](CC(=O)O)C(=O)N[C@@H](CCC(=O)O)C(=O)N[C@@H](CCC(N)=O)C(=O)N[C@@H](Cc1ccccc1)C(=O)N[C@H](C(=O)N[C@@H](CCC(=O)O)C(=O)N[C@@H](CC(C)C)C(=O)N[C@@H](Cc1ccc(O)cc1)C(=O)NCC(=O)N[C@H](C(=O)N[C@@H](CCC(=O)O)C(=O)N[C@@H](CCC(=O)O)C(=O)N[C@@H](Cc1ccc(O)cc1)C(N)=O)[C@@H](C)O)C(C)C` [TBK1_164–179 E], for which the Kd was 12.4 ± 0.6 µM in assay [1] and 2.1 ± 0.2 µM in assay [3]. The PES in assay [4] is recorded as 1 (0.11); in assay [5], 3.2 (0.0061); in assay [6], 5.1 (0.00047).
